Measurements taken from patent US6333340A, “Small molecule sulfonamides for vision and memory disorders” (Gpi Nil Holdings, Inc., priority 1998, dated 2001).
Like-named read-outs stand apart in the source and are kept apart here.

Key:
[1] = test system: retinal ganglion cell axons; assay: Protection of retinal ganglion cell axons from degeneration following optic nerve transection, RT 97 axon density (Table V); format: in vivo
Description: Efficacy of representative compounds from different immunophilin ligand series in protecting retinal ganglion cell axons from degeneration following optic nerve transection is set forth in Table V.

FKBP12 = FKBP12 (Homo sapiens, UniProt P62942); assay: Inhibition of peptidyl-prolyl isomerase (rotamase) activity of FKBP, chymotrypsin-coupled assay; format: biochemical
Sequence of FKBP12 (P62942 whole entry): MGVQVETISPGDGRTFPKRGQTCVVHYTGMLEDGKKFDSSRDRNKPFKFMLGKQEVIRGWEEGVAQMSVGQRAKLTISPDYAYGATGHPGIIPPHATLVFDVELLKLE
Description: The inhibition of the prolyl peptidyl cis-trans isomerase activity of FKBP may be measured as an indicator of this affinity.
Inhibition of the peptidyl-prolyl isomerase (rotamase) activity of the compounds used in the inventive methods and pharmaceutical compositions can be evaluated by known methods described in the literature (Harding et al., Nature, 1989, 341:758-760; Holt et al. J. Am. Chem. Soc., 115:9923-9938). These values are obtained as apparent Ki 's and are presented for representative compounds in TABLE B.
The cis-trans isomerization of an alanine-proline bond in a model substrate, N-succinyl-Ala-Ala-Pro-Phe-p-nitroanilide, is monitored spectrophotometrically in a chymotrypsin-coupled assay, which releases para-nitroanilide from the trans form of the substrate. The inhibition of this reaction caused by the addition of different concentrations of inhibitor is determined, and the data is analyzed as a change in first-order rate constant as a function of inhibitor concentration to yield the apparent Ki values.
In a plastic cuvette are added […] of ice cold assay buffer (25 mM HEPES, pH 7.8, 100 mM NaCl), 10 mL of FKBP (2.5 mM in 10 mM Tris-Cl pH 7.5, 100 mM NaCl, 1 mM dithiothreitol), 25 mL of chymotrypsin (50 mg/ml in 1 mM HCl) and […] of test compound at various concentrations in dimethyl sulfoxide. The reaction is initiated by the addition of 5 mL of substrate (succinyl-Ala-Phe-Pro-Phe-para-nitroanilide, 5 mg/mL in 2.35 mM LiCl in trifluoroethanol).
The absorbance at 390 nm versus time is monitored for 90 seconds using a spectrophotometer and the rate constants are determined from the absorbance versus time data files.

[2] = Clearance (comments of Table V); format: in vitro ADME
[3] = apparent Ki, Table B, read-out: Ki

| Ki (FKBP12; [3]) [nM] | SMILES | RT 97 RCC axon density 11 days after ON transection (36 ON axon rescued) [1] [%] | Clearance [2] [µL/min] | Ki (FKBP12; Table V, read-out: Ki rotomase) [nM] |
| --- | --- | --- | --- | --- |
|  | O=C(SCCCc1ccccc1)[C@@H]1CCCN1C(=O)NC12CC3CC(CC(C3)C1)C2 [B] | 100 |  |  |
|  | CCC(C)(C)C(=O)C(=O)N1CCCC[C@H]1C(=O)O [H] | 30.3 |  |  |
| 504 | Cc1ccc(S(=O)(=O)N2CCCCC2C(=O)OCCCCc2ccccc2)cc1 (stereo not shown) [Compound 5, 4-phenyl-1-butyl-N-(para-toluene-sulfonyl)pipecolate] |  |  |  |
| 107 | Cc1ccc(S(=O)(=O)N2CCCCC2C(=O)OC(CCCc2ccccc2)CCCc2ccccc2)cc1 (stereo not shown) [Compound 3, 1,7-diphenyl-4-heptyl-N-(para-toluene-sulfonyl)pipecolate] |  |  |  |
|  | O=C(SCCCc1ccccc1)[C@@H]1CCCN1S(=O)(=O)Cc1ccccc1 [C] | 60.4 | 31.1 |  |
|  | CN(C)C(=O)N1CCC[C@H]1C(=O)SCCCc1ccccc1 [N] |  | 21.9 |  |
|  | CCC(C)(C)C(=O)C(=O)N1CCS[C@H]1C(=O)OCCCc1cccnc1 [F] | 55.1 |  | 272 |
|  | CCC(C)(C)C(=O)C(=O)N1CCC[C@H]1C(=O)O [L] | 7.8 | 5.2 |  |
|  | CCC(C)(C)C(=O)C(=O)N1CCCC[C@H]1C(=O)SCCC(c1ccccc1)c1ccccc1 [K] | 13.0 | 4.5 |  |
|  | O=C(OCCCc1cccnc1)[C@@H]1CCCN1C(=S)NC1CCCCC1 [I] | 23.8 | 8.0 |  |
|  | CCC(C)(C)C(=O)CN1CCCCC1C(=O)OC(CCc1ccccc1)CCc1ccccc1 (stereo not shown) [E] | 56.6 | 42.8 |  |
|  | CCC(C)(C)C(=O)C(=O)N1CCCC[C@H]1C(=O)CCCCc1cccnc1 [J] | 15.8 | 1.5 | 210 |
|  | CCC(C)(C)C(=O)C(=O)N1CCC[C@H]1C(=O)SCCC(c1ccccc1)c1ccccc1 [M] | -6.3 | 12.5 |  |
|  | O=C(OCCCCc1ccccc1)[C@@H]1CCCCN1S(=O)(=O)Cc1ccccc1 [D] | 58.4 |  |  |
| 470 | O=C(OCCCCc1ccccc1)C1CCCCN1S(=O)(=O)c1ccccc1 (stereo not shown) [Compound 6, 4-phenyl-1-butyl-N-(benzene-sulfonyl)pipecolate] |  |  |  |
|  | CCC(C)(C)C(=O)C(=O)N1CCCC[C@H]1C(=O)O [G] | 34.0 |  |  |
